Measurements reported in patent publication US9771341B2, “Piperazine carbamates and methods of making and using same” (Abide Therapeutics, Inc., priority 2015, dated 2017).

Columns and labels:
Assay type in all cases: biochemical
[1] = target: T1, FAAH (Mus musculus, UniProt O08914); assay: In vitro competitive activity-based protein profiling (mouse), FAAH; conditions: for inhibition at 1 µM: mouse proteome, in vitro; for IC50: mouse brain membrane fraction or cell lysates, 30 min preincubation at 37° C, FP-Rh probe
T1 construct: Proteomes (mouse brain membrane fraction or cell lysates); from tissue; host or cells: mouse brain membrane fraction (or unspecified cell lysates)
T1 sequence (O08914 1-579): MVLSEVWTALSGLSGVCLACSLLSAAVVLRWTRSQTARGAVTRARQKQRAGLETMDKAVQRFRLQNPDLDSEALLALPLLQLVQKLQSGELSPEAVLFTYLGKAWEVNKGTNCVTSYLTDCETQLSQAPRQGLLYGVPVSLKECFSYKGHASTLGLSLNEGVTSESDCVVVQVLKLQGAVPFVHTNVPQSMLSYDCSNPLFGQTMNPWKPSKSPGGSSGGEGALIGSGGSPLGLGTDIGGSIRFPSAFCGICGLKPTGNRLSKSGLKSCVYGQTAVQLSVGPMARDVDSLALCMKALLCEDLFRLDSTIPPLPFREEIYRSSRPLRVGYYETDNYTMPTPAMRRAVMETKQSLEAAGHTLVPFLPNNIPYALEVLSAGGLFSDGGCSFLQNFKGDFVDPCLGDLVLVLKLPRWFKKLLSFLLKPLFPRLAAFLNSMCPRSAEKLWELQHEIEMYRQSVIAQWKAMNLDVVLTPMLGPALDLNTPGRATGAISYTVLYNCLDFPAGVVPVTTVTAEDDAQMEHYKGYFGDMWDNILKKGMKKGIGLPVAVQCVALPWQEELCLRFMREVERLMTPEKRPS
Experimental: (§1) In Vitro Competitive Activity-Based Protein Profiling (Mouse).
Proteomes (mouse brain membrane fraction or cell lysates) (50 μL, 1.0 mg/mL total protein concentration) were preincubated with varying concentrations of inhibitors at 37° C. After 30 min, FP-Rh (1.0 μL, 50 μM in DMSO) was added and the mixture was incubated for another 30 min at 37° C. Reactions were quenched with SDS loading buffer (50 μL-4×) and run on SDS-PAGE. Following gel imaging, serine hydrolase activity was determined by measuring fluorescent intensity of gel bands corresponding to MAGL, ABHD6 and FAAH using ImageJ 1.43u software.

[2] = target: T2, MAGL (Mus musculus, UniProt O35678); assay: In vitro competitive activity-based protein profiling (mouse), MAGL; conditions: for inhibition at 1 µM: mouse proteome, in vitro, read-out: % Inhibition at 1 μM MAGL; for IC50: mouse brain membrane fraction or cell lysates, 30 min preincubation at 37° C, FP-Rh probe
T2 construct: Proteomes (mouse brain membrane fraction or cell lysates); from tissue; host or cells: mouse brain membrane fraction (or unspecified cell lysates)
T2 sequence (O35678 1-303): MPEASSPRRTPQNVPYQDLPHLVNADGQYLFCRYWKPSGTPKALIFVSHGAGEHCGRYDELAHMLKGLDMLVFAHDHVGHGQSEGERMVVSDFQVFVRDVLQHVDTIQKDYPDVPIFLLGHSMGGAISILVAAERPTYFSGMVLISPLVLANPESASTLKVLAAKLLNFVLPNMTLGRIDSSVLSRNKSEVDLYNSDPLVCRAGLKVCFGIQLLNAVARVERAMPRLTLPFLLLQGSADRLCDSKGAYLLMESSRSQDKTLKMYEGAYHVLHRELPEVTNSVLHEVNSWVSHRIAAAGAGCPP
Experimental: as §1
(§2) Proteomes (mouse brain membrane fraction or cell lysates) (50 μL, 1.0 mg/mL total protein concentration) were preincubated with varying concentrations of inhibitors at 37° C. After 30 min, FP-Rh (1.0 μL, 50 μM in DMSO) was added and the mixture was incubated for another 30 min at 37° C. Reactions were quenched with SDS loading buffer (50 μL-4×) and run on SDS-PAGE.

[3] = target: T3, ABHD6 (Mus musculus, UniProt Q8R2Y0); assay: In vitro competitive activity-based protein profiling (mouse), ABHD6; conditions: for inhibition at 1 µM: mouse proteome, in vitro, read-out: % Inhibition at 1 μM ABHD6; for IC50: mouse brain membrane fraction or cell lysates, 30 min preincubation at 37° C, FP-Rh probe
T3 construct: Proteomes (mouse brain membrane fraction or cell lysates); from tissue; host or cells: mouse brain membrane fraction (or unspecified cell lysates)
T3 sequence (Q8R2Y0 1-336): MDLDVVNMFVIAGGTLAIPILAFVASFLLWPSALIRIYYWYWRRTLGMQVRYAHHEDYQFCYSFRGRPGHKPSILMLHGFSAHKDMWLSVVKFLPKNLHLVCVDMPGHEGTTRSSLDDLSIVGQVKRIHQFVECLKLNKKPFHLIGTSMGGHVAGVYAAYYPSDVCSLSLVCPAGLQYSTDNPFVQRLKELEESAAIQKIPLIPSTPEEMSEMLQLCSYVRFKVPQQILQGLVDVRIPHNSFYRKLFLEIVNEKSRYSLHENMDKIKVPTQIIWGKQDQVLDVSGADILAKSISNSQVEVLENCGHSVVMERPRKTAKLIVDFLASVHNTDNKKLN
Experimental: as §1, §2

| Compound | inhibition at 1 µM [1] [%] | IC50 [1] [nM] | inhibition at 1 µM [2] [%] | IC50 [2] [nM] | inhibition at 1 µM [3] [%] | IC50 [3] [nM] |
| --- | --- | --- | --- | --- | --- | --- |
| CC(=O)N1CCN(Cc2cccc(CN3CCN(C(=O)OC(C(F)(F)F)C(F)(F)F)CC3)c2C)CC1 [Example 14, 1,1,1,3,3,3-hexafluoropropan-2-yl 4-(3-((4-acetylpiperazin-1-yl)methyl)-2-methylbenzyl)piperazine-1-carboxylate] | < 25 | > 1000 | > 75 | < 100 | > 75 | < 100 |
| Cc1c(CN2CCC(F)CC2)cccc1CN1CCN(C(=O)OC(C(F)(F)F)C(F)(F)F)CC1 [Example 15, 1,1,1,3,3,3-hexafluoropropan-2-yl 4-(3-((4-fluoropiperidin-1-yl)methyl)-2-methylbenzyl)piperazine-1-carboxylate] | < 25 | > 1000 | > 75 | < 100 | > 75 | 100 to 1000 |
| O=C(O)C1CCN(c2cc(C(F)(F)F)ccc2CN2CCN(C(=O)OC(C(F)(F)F)C(F)(F)F)CC2)C1 (stereo not drawn) [Example 72, 1-(2-((4-(((1,1,1,3,3,3-hexafluoropropan-2-yl)oxy)carbonyl)piperazin-1-yl)methyl)-5-(trifluoromethyl)phenyl)pyrrolidine-3-carboxylic acid] | < 25 | > 1000 | > 75 | < 100 | > 75 | 100 to 1000 |
| O=C(OC(C(F)(F)F)C(F)(F)F)N1CCN(Cc2ccc(C(F)(F)F)c(N3CCC(CO)C3)c2)CC1 (stereo not drawn) [Example 81, 1,1,1,3,3,3-hexafluoropropan-2-yl 4-(3-(3-(hydroxymethyl)pyrrolidin-1-yl)-4-(trifluoromethyl)benzyl)piperazine-1-carboxylate] | < 25 | > 1000 | > 75 | 100 to 1000 | > 75 | 100 to 1000 |
| O=C(O)C(=O)c1cc(CN2CCN(C(=O)OC(C(F)(F)F)C(F)(F)F)CC2)ccc1C(F)(F)F [Example 84, 2-(5-((4-(((1,1,1,3,3,3-hexafluoropropan-2-yl)oxy)carbonyl)piperazin-1-yl)methyl)-2-(trifluoromethyl)phenyl)-2-oxoacetic acid] | < 25 | > 1000 | > 75 | < 100 | > 75 | < 100 |
| Cc1c(CN2CCN(C(=O)OC(C(F)(F)F)C(F)(F)F)CC2)cccc1N1CCC(NS(C)(=O)=O)CC1 [Example 52, 1,1,1,3,3,3-hexafluoropropan-2-yl 4-(2-methyl-3-(4-(methylsulfonamido)piperidin-1-yl)benzyl)piperazine-1-carboxylate] | < 25 | > 1000 | > 75 | < 100 | > 75 | 100 to 1000 |
| Cc1c(CN2CCC(NS(C)(=O)=O)CC2)cccc1CN1CCN(C(=O)OC(C(F)(F)F)C(F)(F)F)CC1 [Example 10, 1,1,1,3,3,3-hexafluoropropan-2-yl 4-(2-methyl-3-((4-(methylsulfonamido)piperidin-1-yl)methyl)benzyl)piperazine-1-carboxylate] | < 25 | > 1000 | > 75 | < 100 | > 75 | 100 to 1000 |
| CCOC(=O)C1CCCN1c1cc(CN2CCN(C(=O)OC(C(F)(F)F)C(F)(F)F)CC2)cc(C(F)(F)F)c1 (stereo not drawn) [Example 87, 1,1,1,3,3,3-hexafluoropropan-2-yl 4-(3-(2-(ethoxycarbonyl)pyrrolidin-1-yl)-5-(trifluoromethyl)benzyl)piperazine-1-carboxylate] | < 25 | > 1000 | > 75 | < 100 | > 75 | 100 to 1000 |
| CCOC(=O)C1CCCN1c1cc(CN2CCN(C(=O)OC(C(F)(F)F)C(F)(F)F)CC2)ccc1C(F)(F)F (stereo not drawn) [Example 78, 1,1,1,3,3,3-hexafluoropropan-2-yl 4-(3-(2-(ethoxycarbonyl)pyrrolidin-1-yl)-4-(trifluoromethyl)benzyl)piperazine-1-carboxylate] | < 25 | > 1000 | > 75 | < 100 | > 75 | 100 to 1000 |
| Cc1cc(C)n(C2CN(c3cc(Cl)ccc3CN3CCN(C(=O)OC(C(F)(F)F)C(F)(F)F)CC3)C2)n1 [Example 38, 1,1,1,3,3,3-hexafluoropropan-2-yl 4-(4-chloro-2-(3-(3,5-dimethyl-1H-pyrazol-1-yl)azetidin-1-yl)benzyl)piperazine-1-carboxylate] | < 25 | > 1000 | > 75 | < 100 | < 25 | 100 to 1000 |
| NC(=O)C1CCN(c2cc(C(F)(F)F)ccc2CN2CCN(C(=O)OC(C(F)(F)F)C(F)(F)F)CC2)CC1 [Example 36, 1,1,1,3,3,3-hexafluoropropan-2-yl 4-(2-(4-carbamoylpiperidin-1-yl)-4-(trifluoromethyl)benzyl)piperazine-1-carboxylate] | < 25 | > 1000 | > 75 | < 100 | > 75 | 100 to 1000 |
| O=C(OC(C(F)(F)F)C(F)(F)F)N1CCN(Cc2ccc(Cl)cc2N2CCC3(CCCN3C3CC3)CC2)CC1 [Example 66, 1,1,1,3,3,3-hexafluoropropan-2-yl 4-(4-chloro-2-(1-cyclopropyl-1,8-diazaspiro[4.5]decan-8-yl)benzyl)piperazine-1-carboxylate] | < 25 | > 1000 | > 75 | 100 to 1000 | 25 to 75 | > 1000 |
| O=C(O)C1CCN(c2cc(C(F)(F)F)ccc2CN2CCN(C(=O)OC(C(F)(F)F)C(F)(F)F)CC2)CC1 [Example 63, 1-(2-((4-(((1,1,1,3,3,3-hexafluoropropan-2-yl)oxy)carbonyl)piperazin-1-yl)methyl)-5-(trifluoromethyl)phenyl)piperidine-4-carboxylic acid] | < 25 | > 1000 | > 75 | < 100 | > 75 | 100 to 1000 |
| O=C(OC(C(F)(F)F)C(F)(F)F)N1CCN(Cc2cc(N3CCC(CO)C3)cc(C(F)(F)F)c2)CC1 (stereo not drawn) [Example 90, 1,1,1,3,3,3-hexafluoropropan-2-yl 4-(3-(3-(hydroxymethyl)pyrrolidin-1-yl)-5-(trifluoromethyl)benzyl)piperazine-1-carboxylate] | < 25 | > 1000 | > 75 | < 100 | > 75 | 100 to 1000 |
| O=C(OC(C(F)(F)F)C(F)(F)F)N1CCN(Cc2ccc(C(F)(F)F)cc2N2CCC3(CCCN3C3CC3)CC2)CC1 [Example 67, 1,1,1,3,3,3-hexafluoropropan-2-yl 4-(2-(1-cyclopropyl-1,8-diazaspiro[4.5]decan-8-yl)-4-(trifluoromethyl)benzyl)piperazine-1-carboxylate] | < 25 | > 1000 | > 75 | 100 to 1000 | < 25 | > 1000 |
